Test results as given in ChEMBL document CHEMBL1152582, “Discovery of trans-N-[1-(2-fluorophenyl)-3-pyrazolyl]-3-oxospiro[6-azaisobenzofuran-1(3H),1'-cyclohexane]-4'-carboxamide, a potent and orally active neuropeptide Y Y5 receptor antagonist” (Bioorg Med Chem, 2009).
Calls of active or inactive are those of the source. The calls are words filed in the database; no cut-off is given here.

Assays:
[1] = molecular target: T1, Neuropeptide Y receptor type 5 (Homo sapiens, UniProt Q15761)
T1 sequence (Q15761 whole entry): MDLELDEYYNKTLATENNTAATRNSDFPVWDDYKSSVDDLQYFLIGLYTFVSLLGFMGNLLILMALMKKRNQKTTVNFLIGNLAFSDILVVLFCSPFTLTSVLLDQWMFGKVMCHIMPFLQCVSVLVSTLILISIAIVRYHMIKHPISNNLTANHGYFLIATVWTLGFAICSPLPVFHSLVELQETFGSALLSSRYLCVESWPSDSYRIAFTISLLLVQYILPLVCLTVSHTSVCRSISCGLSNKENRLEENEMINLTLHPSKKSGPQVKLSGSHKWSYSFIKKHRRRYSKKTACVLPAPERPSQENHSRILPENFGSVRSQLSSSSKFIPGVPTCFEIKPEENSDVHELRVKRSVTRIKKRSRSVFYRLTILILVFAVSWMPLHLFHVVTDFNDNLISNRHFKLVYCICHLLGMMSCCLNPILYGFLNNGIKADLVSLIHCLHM
Description: Displacement of [125I]PYY from human recombinant Y5 receptor

Rattus norvegicus [2] = experiment: Inhibition of [D-Trp34]NPY-induced food intake in Sprague-Dawley rat assessed as minimum effective dose treated po 2 hrs before [D-Trp34]NPY challenge; format: functional; conditions: read-out: MED
[3] = molecular target: T2, Neuropeptide Y receptor type 5 (Rattus norvegicus, UniProt Q63634)
T2 sequence (Q63634 whole entry): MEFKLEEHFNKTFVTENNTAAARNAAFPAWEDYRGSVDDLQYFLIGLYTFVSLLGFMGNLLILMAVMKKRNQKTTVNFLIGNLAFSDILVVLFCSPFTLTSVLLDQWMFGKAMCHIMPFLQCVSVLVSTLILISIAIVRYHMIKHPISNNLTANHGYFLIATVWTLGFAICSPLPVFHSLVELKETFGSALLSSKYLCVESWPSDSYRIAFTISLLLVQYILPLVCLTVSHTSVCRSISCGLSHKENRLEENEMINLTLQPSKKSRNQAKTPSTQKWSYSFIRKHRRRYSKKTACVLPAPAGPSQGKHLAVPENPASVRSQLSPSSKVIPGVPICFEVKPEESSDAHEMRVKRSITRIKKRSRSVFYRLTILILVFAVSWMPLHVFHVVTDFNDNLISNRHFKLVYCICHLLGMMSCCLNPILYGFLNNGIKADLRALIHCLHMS
Description: Inhibition of rat Y5 receptor

in vivo [4] = conditions: rat, plasma, po, 10 mg/kg
Description: Plasma concentration in rat at 10 mg/kg, po after 2 hrs

in vivo [5] = conditions: rat, CSF, po, 10 mg/kg
Description: Drug level in rat CSF at 10 mg/kg, po after 2 hrs

in vivo [6] = conditions: rat, CSF/plasma, po, 10 mg/kg
Description: Ratio of drug level in CSF to plasma in rat at 10 mg/kg, po after 2 hrs

Brain = conditions: rat, in vivo, po, 10 mg/kg, 2 h
Description: Drug level in rat brain at 10 mg/kg, po after 2 hrs

in vitro = conditions: rat, hepatocytes
Description: Clearance in rat hepatocytes

physchem = conditions: buffer, pH 7.4
Description: Lipophilicity, log D at pH 7.4

Mus musculus [7] = species: Mus musculus; experiment: Ex vivo Y5 receptor occupancy in mouse brain at plasma level of 100 to 200 ng/ml; format: functional, organism-based
Rattus norvegicus [8] = experiment: Inhibition of [D-Trp34]NPY-induced food intake in Sprague-Dawley rat at 10 mg/kg, po treated 2 hrs before [D-Trp34]NPY challenge; format: functional
Rattus norvegicus [9] = experiment: Inhibition of [D-Trp34]NPY-induced food intake in Sprague-Dawley rat at 3 mg/kg, po treated 2 hrs before [D-Trp34]NPY challenge; format: functional
Mus musculus [10] = species: Mus musculus; experiment: Ex vivo Y5 receptor occupancy in mouse brain at plasma level of 10 to 20 ng/ml; format: functional, organism-based
Rattus norvegicus [11] = experiment: Inhibition of [D-Trp34]NPY-induced food intake in Sprague-Dawley rat at 0.3 mg/kg, po treated 2 hrs before [D-Trp34]NPY challenge; format: functional
Rattus norvegicus [12] = experiment: Inhibition of NPY-induced food intake in Sprague-Dawley rat at 10 mg/kg, po treated 2 hrs before [D-Trp34]NPY challenge; format: functional
Rattus norvegicus [13] = experiment: Inhibition of [D-Trp34]NPY-induced food intake in Sprague-Dawley rat at 1 mg/kg, po treated 2 hrs before [D-Trp34]NPY challenge; format: functional
CYP3A = experiment: Inhibition of CYP3A at 10 uM; format: ADME
[14] = Ratio of drug level in brain to plasma in rat at 10 mg/kg, po after 2 hrs; format: ADME, organism-based; parameters: dose 10 mg/kg, route oral; conditions: read-out: BPR

Row | SMILES | IC50 [1] [nM] | concentration at 2 h (in vivo [4]) [nM] | concentration at 2 h (in vivo [5]) [nM] | Drug uptake (Brain) [nmol/g] | CLhep predicted (in vitro) [mL/min/kg] | logD (physchem) | also measured
1 | O=C1O[C@]2(CC[C@H](C(=O)Nc3ccn(-c4ccccc4)n3)CC2)c2cccnc21 | 4.4 | 6460 | 416 | 2.79 | 4 | 2.8 | minimal effective dose (Rattus norvegicus [2]): 3 mg/kg; IC50 [3]: 1.7 nM; Kp at 2 h (in vivo [6]): 0.15
2 | O=C1O[C@]2(CC[C@H](C(=O)Nc3cc(-c4ccccc4)[nH]n3)CC2)c2ncccc21 | 26 |  |  |  |  |  | 
3 | O=C1O[C@]2(CC[C@H](C(=O)Nc3cnc(-c4ccccc4)cn3)CC2)c2ccccc21 | 1.5 |  |  |  | 35 | > 4 | 
4 | O=C1O[C@]2(CC[C@H](C(=O)Nc3cnc(-c4ccccc4)cn3)CC2)c2cnccc21 | 2.2 |  |  |  | 36 | 3.39 | 
5 | O=C1O[C@]2(CC[C@H](C(=O)Nc3cnc(-c4ccccc4)cn3)CC2)c2cccnc21 | 4.2 | 3750 | 174 | 2.5 | 18 | 3.1 | 
6 | O=C1OC2(CCC(C(=O)Nc3cnc(-c4ccccc4)cn3)CC2)c2ccccc21 (configuration not stated) |  |  |  |  |  |  | minimal effective dose (Rattus norvegicus [2]): > 10 mg/kg; IC50 [3]: 2.5 nM; Activity (Mus musculus [7]): Active
7 | O=C1O[C@]2(CC[C@H](C(=O)Nc3cc(-c4ccccc4)on3)CC2)c2ncccc21 | 2.4 |  |  |  | 36 | 3.7 | 
8 | O=C1O[C@]2(CC[C@H](C(=O)Nc3cnn(-c4ccccc4)n3)CC2)c2cnccc21 | 0.89 | 680 | 42 | 1.33 | 21 | 3.4 | Kp at 2 h (in vivo [6]): 0.032
9 | O=C1O[C@]2(CC[C@H](C(=O)Nc3cnc(-c4ccccc4)cn3)CC2)c2ncccc21 | 3.9 |  |  |  | 39 |  | 
10 | O=C1O[C@]2(CC[C@H](C(=O)Nc3cc(-c4ccccc4)[nH]n3)CC2)c2cccnc21 | 5.4 |  |  |  | 2 |  | 
11 | O=C1O[C@]2(CC[C@H](C(=O)Nc3ncc(-c4ccccc4)cn3)CC2)c2cnccc21 |  |  |  |  | 39 |  | 
12 | O=C1O[C@]2(CC[C@H](C(=O)Nc3ccn(-c4ccccc4F)n3)CC2)c2cnccc21 [MK-0557] |  | 1590 | 152 | 2.15 | 9 | 3.2 | inhibition in vivo at 10 mg/kg (Rattus norvegicus [8]): 83%; minimal effective dose (Rattus norvegicus [2]): 3 mg/kg; inhibition in vivo at 3 mg/kg (Rattus norvegicus [9]): 61%; IC50 [3]: 2.1 nM; Activity (Mus musculus [10]): Active; inhibition in vivo at 0.3 mg/kg (Rattus norvegicus [11]): 27%; inhibition in vivo at 10 mg/kg (Rattus norvegicus [12]): 22%; inhibition in vivo at 1 mg/kg (Rattus norvegicus [13]): 43%
13 | O=C1O[C@]2(CC[C@H](C(=O)Nc3ncc(-c4ccccc4)cn3)CC2)c2ncccc21 |  |  |  |  | 49 |  | 
14 | O=C1O[C@]2(CC[C@H](C(=O)Nc3ccc(-c4ccccc4)cn3)CC2)c2cnccc21 | 2.1 | 20 |  |  | 14 |  | 
15 | O=C1O[C@]2(CC[C@H](C(=O)Nc3cc(-c4ccccc4)n[nH]3)CC2)c2ccncc21 | 2.9 |  |  |  | 9 |  | inhibition at 10 µM (CYP3A): > 50%
16 | O=C1O[C@]2(CC[C@H](C(=O)Nc3ccn(-c4ccccc4)n3)CC2)c2cnccc21 | 2.3 | 2940 | 276 | 3.13 | 20 | 3.1 | minimal effective dose (Rattus norvegicus [2]): > 10 mg/kg; IC50 [3]: 2.2 nM; Kp at 2 h (in vivo [6]): 0.088; Kp at 2 h [14]: 1.06
17 | O=C1O[C@]2(CC[C@H](C(=O)Nc3cc(-c4ccccc4)[nH]n3)CC2)c2cnccc21 | 2.7 | 6100 | 59 | 0.5 | 3 | 3.16 | 
18 | O=C1O[C@]2(CC[C@H](C(=O)Nc3cnn(-c4ccccc4)c3)CC2)c2cnccc21 | 2.2 | 1520 | 45 | 0.39 | < 1 |  | Kp at 2 h (in vivo [6]): 0.115
19 | O=C1O[C@]2(CC[C@H](C(=O)Nc3ccn(-c4ccc(F)cc4)n3)CC2)c2cnccc21 | 0.92 | 890 | 81 | 1.24 | 7 | 3.2 | minimal effective dose (Rattus norvegicus [2]): 1 mg/kg; IC50 [3]: 2.1 nM
20 | O=C1O[C@]2(CC[C@H](C(=O)Nc3ccn(-c4cccc(F)c4)n3)CC2)c2cnccc21 | 2 | 1090 | 77 | 1.36 | 10 | 3.4 | 
21 | O=C1O[C@]2(CC[C@H](C(=O)Nc3ncc(-c4ccccc4)cn3)CC2)c2ccncc21 |  |  |  |  | 42 |  | inhibition at 10 µM (CYP3A): > 50%
22 | O=C1O[C@]2(CC[C@H](C(=O)Nc3csc(-c4ccccc4)n3)CC2)c2cnccc21 | 1.2 | 190 |  |  | 12 |  | 
23 | O=C1O[C@]2(CC[C@H](C(=O)Nc3cnc(-c4ccccc4)cn3)CC2)c2ccncc21 | 2.4 |  |  |  | 42 |  | inhibition at 10 µM (CYP3A): > 50%
24 | O=C1O[C@]2(CC[C@H](C(=O)Nc3cc(-c4ccccc4)on3)CC2)c2cnccc21 | 2.1 | 290 |  |  | 6 |  | 
25 | O=C1O[C@]2(CC[C@H](C(=O)Nc3ncc(-c4ccccc4)cn3)CC2)c2cccnc21 |  |  |  |  | 49 |  | 
26 | O=C1O[C@]2(CC[C@H](C(=O)Nc3cnn(-c4ccccc4)c3)CC2)c2cccnc21 | 1.3 | 6680 | 91 | 0.5 | 1 | 2.9 | minimal effective dose (Rattus norvegicus [2]): 10 mg/kg; IC50 [3]: 4.7 nM; Kp at 2 h (in vivo [6]): 0.18
